These results are taken from US11046691B1 (IDEAYA BIOSCIENCES, INC., priority 2018, dated 2021).

The term IC50 denotes the midpoint of a concentration-inhibition curve. Lower therefore signals higher potency.

Sequence of hMAT2A (P31153 whole entry): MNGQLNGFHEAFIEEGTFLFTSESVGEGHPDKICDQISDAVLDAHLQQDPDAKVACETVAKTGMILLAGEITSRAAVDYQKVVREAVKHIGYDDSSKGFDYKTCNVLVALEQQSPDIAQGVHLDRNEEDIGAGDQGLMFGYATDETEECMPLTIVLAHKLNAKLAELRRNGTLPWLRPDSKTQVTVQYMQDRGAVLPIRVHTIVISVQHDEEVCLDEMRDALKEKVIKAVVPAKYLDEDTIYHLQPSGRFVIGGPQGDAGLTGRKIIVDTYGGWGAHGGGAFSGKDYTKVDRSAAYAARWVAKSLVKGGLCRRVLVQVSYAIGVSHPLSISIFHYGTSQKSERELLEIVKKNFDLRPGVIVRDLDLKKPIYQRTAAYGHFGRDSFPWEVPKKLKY

The first experiment addresses hMAT2A (Homo sapiens (Human), UniProt P31153). The experiment can be described thus: Phosphate Sensor Fluorescence Assay (MAT2A enzyme inhibition). Format: biochemical. Particulars: L-methionine 500 uM, ATP 500 uM, class symbols. As to the method: The ability of the compound of present disclosure to inhibit MAT2A enzyme was determined using the Malachite Green or Phosphate Sensor Fluorescence Assay described below.
B. Phosphate Sensor Fluorescence Assay
MAT2A enzyme is incubated with a test compound in DMSO or DMSO and its substrates (L-methionine and ATP) in a microtiter plate. The enzymatic reaction is stopped by the addition of Working Phosphate Sensor Mixture. The plate is analyzed for fluorescence at 450 nm.
Assay Buffer: 50 mM Tris, pH 7.5/50 mM KCl/10 mM MgCl2/0.01% Brij-35/1 mM DTT/0.1% BGG/40 nM PNP/6 uM 7-MEG
L-methionine: 500 uM before the addition of Working Phosphate Sensor Mixture
ATP: 500 uM before the addition of Working Phosphate Sensor Mixture
Test compounds or DMSO were added to the appropriate well suing D300e digital dispenser. 5 μl/well of Assay Buffer was added to the wells corresponding to the negative control and 5 μl/well of MAT2A was added to all the wells except for those corresponding to the negative control. After incubating the plate at room temperature for 15 minutes, 5 μl/well of the 1 mM L-methionine/1 mM ATP mixture was added to all wells. The plate was centrifuged at 1000 rpm for 1 minute and then incubated at room temperature for 1 hour. 5 μl of the Working Phosphate Sensor Mixture was added to all wells and the plate was centrifuged at 1000 rpm for 1 minute. The plate was read for fluorescence at 450 nm after exciting at 430 nm.
Percent inhibition was calculated in Chemical and Biological Information System (CBIS), (ChemInnovation Software Inc.). Curves were fitted by CBIS as % inhibition vs. log [compound concentration] using a 4-parameter inhibition model. Fit=(A+((B−A)/(1+((C/x)^D)))) Res=(y−fit)
In turn, `CC1(C)[C@H](O)C[C@@H]1Nc1nc(=O)n(-c2ccccc2Cl)c2nc(C(F)(F)F)ccc12` (relative stereo) [Example 276, 4-[((cis)-3-hydroxy-2,2-dimethylcyclo-butyl)amino]-1-(2-chlorophenyl)-7-(trifluoromethyl)-pyrido[2,3-d]-pyrimidin-2(1H)-one] gave an IC50 of 1000 to 10000 nM. The same measure, in the same setting: to `O=c1nc(NC23CC(O)(C2)C3)c2ccc(C(F)(F)F)nc2n1-c1ccccc1Cl` [Example 297, 1-(2-chlorophenyl)-4-[(3-hydroxy-bicyclo[1.1.1]pentyl)amino]-7-(trifluoro-methyl)-pyrido[2,3-d]pyrimidin-2(1H)-one] belongs below 200 nM; to `C[C@@H](O)CNc1nc(=O)n(-c2ccccc2Cl)c2nc(C(F)(F)F)ccc12` [Example 294, 4-[((2R)-2-hydroxypropyl)amino]-1-(2-chlorophenyl)-7-(trifluoromethyl)-pyrido[2,3-d]pyrimidin-2(1H)-one], below 200 nM. Same read-out and setting: the figure for `O=c1nc(NCC(F)(F)F)c2ccc(C(F)(F)F)cc2n1-c1ccccc1` [Example 118] is below 200 nM. Still for that read-out and setting: to `CNc1nc(=O)n(-c2ccccc2Cl)c2cc(C(F)(F)F)c(Br)cc12` [Example 302, 6-bromo-1-(2-chlorophenyl)-4-(methylamino)-7-(trifluoromethyl)-quinazolin-2(1H)-one] belongs below 200 nM; to `CO[C@@H]1CCN(c2nc(=O)n(-c3ccccc3)c3cc(Cl)ccc23)C1` [Example 189, (R)-7-chloro-4-(3-methoxypyrrolidin-1-yl)-1-phenylquinazolin-2(1H)-one], below 200 nM. In the case of `N#CC1(Nc2nc(=O)n(-c3ccccc3Cl)c3nc(C(F)(F)F)ccc23)CCC1` [Example 277, 1-((1-(2-chlorophenyl)-2-oxo-7-(trifluoromethyl)-1,2-dihydropyrido[2,3-d]pyrimidin-4-yl)amino)cyclobutane-1-carbonitrile], the IC50 is below 200 nM. Same read-out and setting: to `O=c1[nH]c(=O)n(-c2ccccc2Cl)c2cc(C(F)(F)F)ccc12` [Example 103, 1-(2-chlorophenyl)-7-(trifluoromethyl)-1,3-dihydroquinazoline-2,4-dione] belongs below 200 nM; to `CC1(Nc2nc(=O)n(-c3ccccc3Cl)c3nc(C(F)(F)F)ccc23)CCC1` [Example 319], below 200 nM; to `CNc1nc(=O)n(Cc2c[nH]cn2)c2cc(Cl)ccc12` [Example 262, 7-chloro-1-(imidazol-4-ylmethyl)-4-(methylamino)hydroquinazolin-2-one], below 200 nM. Same read-out and setting: to `C[C@]1(Nc2nc(=O)n(-c3ccccc3Cl)c3nc(C(F)(F)F)ccc23)C[C@@H](O)C1` [Example 269, 1-(2-chlorophenyl)-4-(((1s,3s)-3-hydroxy-1-methylcyclobutyl)amino)-7-(trifluoromethyl)pyrido[2,3-d]pyrimidin-2(1H)-one] belongs below 200 nM; to `CN(C)CCCNc1nc(=O)n(-c2ccccc2Cl)c2nc(C(F)(F)F)ccc12` [Example 266, 4-{[3-(dimethylamino)propyl]amino}-1-(2-ch1orophenyl)-7-(trifluoromethyl)-pyrido[2,3-d]pyrimidin-2(1H)-one], 1000 to 10000 nM. The same measure, in the same setting: to `CNc1nc(=O)n(-c2cccc(C3CC3)c2)c2cc(Cl)ccc12` [Example 353, 7-chloro-1-(3-cyclopropylphenyl)-4-(methylamino)hydroquinazolin-2-one] belongs below 200 nM; to `COC(=O)C1CN(c2nc(=O)n(-c3ccccc3)c3cc(Cl)ccc23)C1` [Example 199, methyl 1-(7-chloro-2-oxo-1-phenyl-1,2-dihydroquinazolin-4-yl)azetidine-3-carboxylate], below 200 nM; to `COc1nc(=O)n(-c2ccccc2)c2cc(C3CC3)ccc12` [Example 399, 7-cyclopropyl-4-methoxy-1-phenyl-hydroquinazolin-2-one], below 200 nM.

In turn, `O=c1nc(N2CC[C@@H](O)C2)c2ccc(C3CC3)cc2n1-c1ccccc1` [Example 374, 4-((3R)-3-hydroxypyrrolidinyl)-7-cyclopropyl-1-phenylhydroquazolin-2-one] registered an IC50 below 200 nM. On the same count and under the same terms, to `CNc1nc(=O)n(-c2ccc3[nH]ncc3c2)c2cc(Cl)ccc12` [Example 328, 1-(1H-indazol-5-yl)-7-chloro-4-(methyl-amino)hydroquinazolin-2-one] belongs below 200 nM; to `N#Cc1cccc(-n2c(=O)nc(N3CC[C@@H](O)C3)c3ccc(C(F)(F)F)cc32)c1` [Example 141], below 200 nM. Same read-out and setting: to `N#Cc1cc2c(NCC3CC3)nc(=O)n(-c3ccccc3Cl)c2cc1C1CC1` [Example 409, 1-(2-chlorophenyl)-7-cyclopropyl-4-((cyclopropylmethyl)amino)-2-oxo-1,2-dihydroquinazoline-6-carbonitrile] belongs below 200 nM; to `CCCc1ccc2c(NC)nc(=O)n(-c3ccccc3)c2c1` [Example 97, 4-(methylamino)-1-phenyl-7-propylhydroquinazolin-2-one], below 200 nM; to `CNc1nc(=O)n(-c2ccccc2Cl)c2cc(C3CC3)ccc12` [Example 426, 1-(2-chlorophenyl)-7-cyclopropyl-4-(methylamino)quinazolin-2(1H)-one], below 200 nM. On the same count and under the same terms, to `N#C[C@H]1C[C@@H](Nc2nc(=O)n(-c3ccccc3Cl)c3nc(C(F)(F)F)ccc23)C1` [Example 318, (1s,3s)-3-((1-(2-chlorophenyl)-2-oxo-7-(trifluoromethyl)-1,2-dihydropyrido[2,3-d]pyrimidin-4-yl)amino)cyclobutane-1-carbonitrile] belongs below 200 nM. The compound `O=c1nc(N[C@@H]2C[C@H]2F)c2ccc(OC(F)(F)F)cc2n1-c1ccccc1Cl` (atropisomer, axis not shown) [Example 404, 4-[((1R,2R)-2-fluorocyclopropyl)-amino]-1-(2-chlorophenyl)-7-(trifluoromethoxy)hydroquinazolin-2-one] registered an IC50 below 200 nM.

As to `O=c1nc(NCC2CCO2)c2ccc(C(F)(F)F)nc2n1-c1ccccc1Cl` (stereo not shown) [Example 271, 1-(2-chlorophenyl)-4-[(oxetan-2-ylmethyl)amino]-7-(trifluoromethyl)-pyrido[2,3-d]pyrimidin-2(1H)-one], the IC50 was below 200 nM.

In turn, `Nc1nc(=O)n(-c2ccccc2)c2cc(Cl)cc(Cl)c12` [Example 383, 4-amino-5,7-dichloro-1-phenyl-hydroquinazolin-2-one] displayed an IC50 of 500 to 1000 nM. The same measure, in the same setting: the figure for `[2H]C([2H])([2H])Nc1nc(=O)n(-c2ccccc2Br)c2cc(Cl)ccc12` [Example 368, 1-(2-bromophenyl)-7-chloro-4-((methyl-d3)amino)quinazolin-2(1H)-one] is below 200 nM; for `CC1CCN1c1nc(=O)n(-c2ccccc2)c2cc(Cl)ccc12` (stereo not shown) [Example 223, 7-chloro-4-(2-methylazetidin-1-yl)-1-phenylhydroquinazolin-2-one] it is below 200 nM. On the same count and under the same terms, the figure for `O=c1nc(N2CC(F)C2)c2ccc(C(F)(F)F)nc2n1-c1ccccc1Cl` [Example 315, 1-(2-chlorophenyl)-4-(3-fluoroazetidin-1-yl)-7-(trifluoromethyl)pyrido[2,3-d]pyrimidin-2(1H)-one] is below 200 nM; for `NC(=O)[C@H]1CCCN1c1nc(=O)n(-c2ccccc2)c2cc(Cl)ccc12` [Example 241, (2R)-1-(7-chloro-2-oxo-1-phenylhydro-quinazolin-4-yl)pyrrolidine-2-carboxamide] it is 1000 to 10000 nM. Consider `COc1nc(=O)n(-c2ccccc2)c2cc(C(F)(F)F)ccc12` [Example 144, 4-methoxy-1-phenyl-7-(trifluoromethyl)-hydroquinazolin-2-one], for which the 50% inhibitory concentration (IC50) was 200 to 500 nM. `CNc1nc(=O)n(-c2cccc(C(F)F)c2)c2cc(Cl)ccc12` [Example 355] displayed an IC50 below 200 nM. Same read-out and setting: the figure for `O=c1nc(N2CC[C@@H](O)C2)c2ccc(C(F)(F)F)nc2n1-c1ccccc1` [Example 170, (R)-4-(3-hydroxypyrrolidin-1-yl)-1-phenyl-7-(trifluoromethyl)pyrido[2,3-d]-pyrimidin-2(1H)-one] is below 200 nM; for `CNc1nc(=O)n(-c2nccc(OC)n2)c2cc(Cl)ccc12` [Example 106, 7-chloro-1-(4-methoxypyrimidin-2-yl)-4-(methylamino)hydroquinazolin-2-one] it is 1000 to 10000 nM.

For the compound `Cc1ncccc1-n1c(=O)nc(N)c2ccc(C(F)(F)F)nc21` [Example 263], the IC50 is below 200 nM.

The same experiment, now with this note: L-methionine 500 uM, ATP 500 uM, numeric bound.
`O=c1[nH]c(=O)n(-c2ccccc2Cl)c2nc(C(F)(F)F)ccc12` [Example 288, 1-(2-chlorophenyl)-4-hydroxy-7-(trifluoromethyl)hydropyridino[2,3-d]-pyrimidin-2-one]: the IC50 was above 10000 nM. On the same count and under the same terms, the figure for `CNc1nc(=O)n(-c2ccccc2)c2cc(Cl)cc(OC3COC3)c12` [Example 202, 7-chloro-4-(methylamino)-5-oxetan-3-yloxy-1-phenylhydroquinazolin-2-one] is above 10000 nM; for `Nc1nc(=O)n(-c2ccc3nccn3c2)c2cc(Cl)ccc12` [Example 252, 4-amino-7-chloro-1-(4-hydroimidazo-[1,2-a]pyridin-6-yl)hydroquinazolin-2-one] it is above 10000 nM.
